Series [1] addresses T1, Human DcpS (Homo sapiens, UniProt Q96C86).
T1 construct: made in house; host or cells: Escherichia coli
T1 sequence (Q96C86 1-337): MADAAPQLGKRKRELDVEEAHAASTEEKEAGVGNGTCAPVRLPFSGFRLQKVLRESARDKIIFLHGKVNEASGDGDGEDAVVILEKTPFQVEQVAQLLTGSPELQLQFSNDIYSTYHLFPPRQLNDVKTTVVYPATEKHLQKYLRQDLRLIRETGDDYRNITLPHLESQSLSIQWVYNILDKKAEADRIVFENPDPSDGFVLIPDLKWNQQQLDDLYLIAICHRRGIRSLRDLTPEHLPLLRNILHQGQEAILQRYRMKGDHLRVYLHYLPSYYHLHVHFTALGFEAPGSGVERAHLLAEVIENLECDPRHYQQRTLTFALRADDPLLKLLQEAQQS
Put plainly: Assay of susceptibility to DcpS (RP HPLC). Format: biochemical. As to conditions: 40 μM cap analog, 30° C., up to 120 min. The procedure:
Human DcpS was expressed in Escherichia coli as described in L. Cohen et al., “Nematode m^7GpppG and m3^2,2,7GpppG decapping: activities in Ascaris embryos and characterization of C. elegans scavenger DcpS,” RNA, vol. 10, pp. 1609-1624 (2004). A 15 μM solution of the protein in 20 mM Tris buffer, pH 7.5, containing 50 mM KCl, 0.2 mM EDTA, 1 mM DTT, 0.5 mM PMSF, and 20% glycerol was stored at −80° C. until used. Enzymatic reactions were carried out at 30° C. in 500 μl of 50 mM Tris-HCl, pH 7.9, containing 20 mM MgCl2 and 60 mM (NH4)2SO4. A 40 μM solution of the selected cap analog was treated with 5.0 μl of DcpS for 120 min. At times of 10, 30, 60, and 120 min, a 100-μl sample was collected from the reaction mixture and deactivated by incubation at 90° C. for 2 min. Samples were analyzed without further treatment by analytical RP HPLC with a linear gradient of methanol in 0.1 M KH2PO4, pH 6.0, from 0-50% over 15 min.

In series [2] the target is eIF4E (Mus musculus, UniProt P63073). Put plainly: Binding affinity of cap analogs to eIF4E by fluorescence titration. As to conditions: equilibrium association constant; 20 °C, pH 7.2, ionic strength 150 mM. How it is done:
Fluorescence titration measurements were carried out on an LS-50B or LS-55 spectrofluorometer (Perkin Elmer Co.) at 20.0±0.2° C. in 50 mM HEPES/KOH (pH 7.2), 0.5 mM EDTA, and 1 mM DTT, with ionic strength adjusted to 150 mM by addition of KCl. Various cap analogue solutions, of increasing concentration, were added in 1 μl aliquots to 1.4 ml of 0.1 or 0.2 μM protein solutions. Fluorescence intensities were measured with excitation at 280 nm or 295 nm with 2.2 nm bandwidth, and detection at 337 nm with 4 nm bandwidth and a 290-nm cut-off filter. The data were corrected for sample dilution and inner filter effects. Equilibrium association constants (Kas) were determined by fitting the theoretical dependence of fluorescence intensity on cap analog concentration to the experimental data, as otherwise described in A. Niedźwiecka et al., “Biophysical studies of eIF4E cap-binding protein: recognition of mRNA 5′ cap structure and synthetic fragments of eIF4G and 4E-BP1 proteins,” J. Mol. Biol., vol. 312, pp. 615-635 (2002). The concentration of protein was allowed to be a free parameter in the equilibrium equation, to determine the amount of “active” protein. The final Kas was calculated as a weighted average of three to ten independent titrations, with the weights taken as the reciprocals of the squares of the numerical standard deviations. Numerical nonlinear least-square regression analysis was performed using ORGIN 6.0 (Microcal Software Inc., USA).
The binding affinities of eukaryotic eIF4E for various cap analogs were determined by fluorescence quenching. This biophysical test allows one to predict the potential efficacy of cap analogs in translation. Those having higher affinities for eIF4E than the unmodified cap analog (m^7GpppG) are expected to be better recognized by the translational machinery, leading to higher translational efficiencies. They also are expected to compete more effectively with unmodified mRNA when free cap dinucleotides are used to inhibit translation. See generally E. Grudzien-Nogalska et al., “Synthesis of anti-reverse cap analogs (ARCAs) and their applications in mRNA translation and stability,” Methods Enzymol., vol. 431, pp. 203-227 (2007).

The target in series [3] is cap-dependent translation of luciferase mRNA in reticulocyte lysate. Put plainly: Inhibition of cap-dependent translation in vitro by free cap analogs. Format: biochemical, rabbit. The procedure: In vitro translation reactions were performed in 12.5 μl for 60 min at 30° C. under conditions favorable for cap-dependent translation. In some cases, the reaction mixture was incubated for 60 min at 30° C. prior to adding the dinucleotide cap analog (inhibitor) and m2^7,3′-OGppG-capped luciferase mRNA to start translation. In other cases, to analyze biological stability, the cap analog was incubated in the translation mixture for 60 min at 30° C. prior to adding the luciferase mRNA to start translation. A typical reaction mixture contained 56% reticulocyte lysate, the 20 “standard” amino acids (0.01 mM each), MgCl2 (1.2 mM), potassium acetate (170 mM), RiboLock Ribonuclease Inhibitor (0.32 U/μl), cap analog solution ( 1/10 of total reaction volume), and m2^7,3′-OGpppG-capped luciferase RNA. […] Reactions were performed with cap analog concentrations ranging from 0.12 to 100 μM. Luciferase activity was measured in a luminometer. […] The program OriginPro8 (OriginLab) was used for curve fitting with the equation qLUC=Z/(1+I/IC50)+N, where qLUC is the activity of luciferase synthesized in the presence of cap analog, Z is the activity of luciferase synthesized in the absence of cap analog, N is the activity of luciferase synthesized in a cap-independent manner, and I is the cap analog concentration.
Two type of experiments were carried out. In one set of experiments (condition A), a cap analog was added to the translation system together with luciferase mRNA. In the other set of experiments (condition B), the cap analog was incubated in the translation system for 60 min before addition of mRNA. […] There was a correlation between the resistance to hydrolysis by DcpS and the stability of analogs in the translation system.

In series [4] the test system is rabbit reticulocyte lysate system. Put plainly: In vitro translation efficiency of capped luciferase mRNA with 31-base poly(A) tail, method II transcripts. The class given is biochemical. The procedure: Capped, polyadenylated luciferase mRNAs were synthesized in vitro by PCR from a dsDNA template that contained the SP6 promoter, the 5′-UTR sequence of rabbit β-globin mRNA, the entire firefly luciferase coding region, and 31 adenosine residues. A typical transcription reaction mixture (40 μl) contained SP6 transcription buffer (Fermentas), 0.7 ug of DNA template, 1 U/μl RiboLock Ribonuclease Inhibitor (Fermentas), 0.5 mM each of ATP, CTP, and UTP, 0.1 mM GTP, and 0.5 mM dinucleotide cap analog. The reaction mixture was incubated at 37° C. for 5 min before addition of SP6 RNA polymerase (Fermentas) to a final concentration of 1 U/μl, and incubation then continued for 45 min at 37° C. The reaction mixture was treated with DNase as in Method I. RNA transcripts were purified with NucAway Spin Columns (Ambion). The integrity of transcripts and quantitation was performed as in Method I.
A micrococcal nuclease-treated rabbit reticulocyte lysate system (Flexi Rabbit Reticulocyte Lysate System, Promega) was used for in vitro translation. Translation reactions were performed in 10 μl for 60 min at 30° C. A typical reaction mixture contained 40% reticulocyte lysate, the 20 “standard” amino acids (0.01 mM each), MgCl2 (1.2 mM), potassium acetate (170 mM), and mRNA (five different concentrations of each transcript, ranging from 0.25 to 4 μg/ml). Luciferase activity was measured in a luminometer (Glomax, Promega). Linear regression was used to fit the data points (luciferase activity versus concentration of mRNA transcript), and translational efficiency was defined as the slope of this line. The relative translational efficiencies of the test mRNAs were compared to that of m^7GpppG-capped luciferase mRNA, the latter being defined as 1.0.

A short description of series [5]: Chemical stability in solution and on storage. Format: physicochemical. How it is done: FIG. 5 depicts the synthesis of m2^7,2′-OGppSepG. The selenophosphate (PSeO3^−3) was prepared by a modification of the method described in R. Glass et al., “Selenophosphate,” Meth. Enzymol., vol. 252, pp. 309-315 (1995). Trimethylsilyl phosphite was treated with selenium in pyridine to give trimethylsilyl selenophosphate, which was then desilylated by methanol in the presence of triethylamine to give the selenophosphate triethylammonium salt. This compound was coupled with the imidazolide derivative of 7,2′-O-dimethylguanosine 5′-monophosphate (m2^7,2′-OGMP-Im) to give 7,2′-O-dimethylguanosine 5′-O-(2-selenodiphosphate) (m2^7,2′-OGDPβSe). […] The reaction was very rapid; essentially 100% conversion of m2^7,2′-OGMP-Im into m2^7,2′-OGDPβSe was observed by RP HPLC after 15 min. […] Thus, care was taken to maintain the pH at 7 or above during purification of m2^7,2′-OGDPβSe, which allowed the product to be isolated with 80% yield after ion-exchange chromatography. The m2^7,2′-OGDPβSe was then coupled with the imidazolide derivative of GMP in the presence of excess ZnCl2. Two peaks were observed by RP HPLC, corresponding to two m2^7,2′-OGppSepG diastereomers, which were designated D1 and D2 according to their elution order. However, the coupling proceeded slowly, and complete disappearance of m2^7,2′-OGDPβSe took about two days. The extended reaction time allowed partial hydrolysis of m2^7,2′-OGDPβSe to m2^7,2′-OGMP, and only a moderate reaction yield (40% conversion by HPLC, 25% isolated). The diastereomeric mixture of m2^7,2′-OGppSepG after isolation by ion-exchange chromatography was successfully resolved into pure diastereomers by RP HPLC. The products were characterized by mass spectrometry, ^1H NMR, and ^31P NMR to confirm structures and homogeneity.

Setting [6] is: cap analog added together with luciferase mRNA, read-out: Inhibition of in vitro translation (IC50), condition A.
Setting [7] is: cap analog incubated in translation system 60 min before addition of mRNA, read-out: Inhibition of in vitro translation (IC50), condition B.

Molecules are shown by their SMILES. Like-named read-outs stand apart in the source and are kept apart here.

The IC50 is the concentration needed to halve the response being measured.

Chain of eIF4E (P63073 28-217 limits assumed): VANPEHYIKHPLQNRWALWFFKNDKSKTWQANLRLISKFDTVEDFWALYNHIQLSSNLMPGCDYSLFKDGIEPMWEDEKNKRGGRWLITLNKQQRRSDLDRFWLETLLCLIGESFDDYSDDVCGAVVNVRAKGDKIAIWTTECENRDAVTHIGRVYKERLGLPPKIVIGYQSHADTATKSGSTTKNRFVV

On to `[BH3-]P(=O)(OC[C@H]1O[C@@H](n2cnc3c(=O)[nH]c(N)nc32)[C@H](O)[C@@H]1O)OP(=O)(O)OP(=O)(O)OC[C@H]1O[C@@H](n2c[n+](C)c3c(=O)[nH]c(N)nc32)[C@H](O)[C@@H]1O` (single isomer, unassigned) [m^7GpppBH3G (D2), m^7GpppBH3G], for which the “Susceptibility to DcpS” value in series [1] is on record as “hydrolyzed”. The “Cap analog/eIF4E affinity (KAS)” value in series [2] was determined as 14.4 ± 0.6 μM^−1. Besides, the IC50 is 3.1 ± 0.2 µM in series [3] (setting [6]) and 16.4 ± 0.8 µM in series [3] (setting [7]).
Regarding `[BH3-]P(=O)(OP(=O)(O)OCC1OC(n2cnc3c(=O)[nH]c(N)nc32)C(O)C1O)OP(=O)(O)OCC1OC(n2c[n+](C)c3c(=O)[nH]c(N)nc32)C(O)C1O` (single isomer, unassigned) [m^7GppBH3pG (D1), m^7GppBH3pG], the “Susceptibility to DcpS” value in series [1] is given as “resistant”. Moreover, the “Cap analog/eIF4E affinity (KAS)” value in series [2] stood at 44 ± 2 μM^−1. The IC50 in series [3] (setting [6]) is 1.6 ± 0.3 µM; in series [3] (setting [7]), 1.3 ± 0.1 µM. Also, the “Translation efficiency in comparison to m^7GpppG-LUC-(A)31 mRNA, Experiment No. 4” value in series [4] (experiment 4) came to 1.65. Moreover, the “Translation efficiency in comparison to m^7GpppG-LUC-(A)31 mRNA, Experiment No. 5” value in series [4] (experiment 5) is 2.17. Besides, the “Translation efficiency in comparison to m^7GpppG-LUC-(A)31 mRNA, Mean” value in series [4] (mean of experiments) is given as 1.91.
In the case of `[BH3-]P(=O)(OC[C@H]1O[C@@H](n2cnc3c(=O)[nH]c(N)nc32)[C@H](O)[C@@H]1O)OP(=O)(O)OP(=O)(O)OC[C@H]1O[C@@H](n2c[n+](C)c3c(=O)[nH]c(N)nc32)[C@H](O)[C@@H]1O` (single isomer, unassigned) [m^7GpppBH3G (D1), m^7GpppBH3G], the “Susceptibility to DcpS” value in series [1] is reported as “hydrolyzed”. For the same molecule, the “Cap analog/eIF4E affinity (KAS)” value in series [2] is on record as 14.5 ± 0.2 μM^−1. Also, the IC50 in series [3] (setting [6]) is 3.2 ± 0.3 µM; in series [3] (setting [7]) it was 9.2 ± 1.9 µM.
Turning to `[BH3-]P(=O)(OP(=O)(O)OCC1OC(n2cnc3c(=O)[nH]c(N)nc32)C(O)C1O)OP(=O)(O)OCC1OC(n2c[n+](C)c3c(=O)[nH]c(N)nc32)C(O)C1O` (single isomer, unassigned) [m^7GppBH3pG (D2), m^7GppBH3pG], the “Susceptibility to DcpS” value in series [1] is “resistant”. The “Cap analog/eIF4E affinity (KAS)” value in series [2] amounted to 13.0 ± 0.2 μM^−1. Besides, the IC50 is 4.5 ± 0.5 µM in series [3] (setting [6]) and 3.5 ± 0.9 µM in series [3] (setting [7]).
On to `COC1C(O)C(COP(=O)([O-])OP(O)(O)=[Se])OC1n1c[n+](C)c2c(=O)[nH]c(N)nc21` (stereo not drawn) [m2^7,2′-OGDPβSe, 7,2′-O-dimethylguanosine 5′-O-(2-selenodiphosphate)], for which, in series [5] (acidic aqueous solutions, hydrolyzed to m2^7,2′-OGMP), the “Stability in acidic aqueous solutions” value is listed as “unstable”. For the same molecule, in series [5] (neutral or basic solutions), the “Stability in neutral or basic solutions” value is recorded as “only moderately stable”.

For the origin of these results see patent US8519110B2, “mRNA cap analogs” (Board of Supervisors of Louisiana State University And …, priority 2008, dated 2013).
